Laboratory results: patent US9849116B2 (KNOPP BIOSCIENCES LLC, priority 2008, dated 2017)

Columns and labels:
[1] = in vivo; details: both, minipig
[2] = system: minipigs; details: ongoing 9-month study past month 7
[3] = system: rats; details: 6 months, 30, 100, 300 mg/kg
[4] = system: male beagle dogs
Description: Three groups of four non-naïve male beagle dogs were used in the study. […] Doses were administered orally by gavage and clinical observations were taken continuously following dosing: hourly for the first four hours, and then twice daily cage-side observations for the duration of the inter-dose or post-dose interval. Observations were made of clinical signs, mortality, injury and availability of food and water. Animals were fasted for 24 hr prior to dosing. Dogs in each group were exposed to only one drug, or the combination; each dose was administered only once, with a subsequent dose administered after a recovery period of 4 days.

[5] = clinical; details: human, plasma
Description: The first panel was administered a singe dose of 50 mg, followed 48 hours later by 4½ days of multiple dosing (twice daily) at 50 mg Q12 hours. The second panel was administered a singe dose of 100 mg, followed 48 hours later by 4½ days of multiple dosing (twice daily) at 100 mg Q12 hours. Safety observations included vital signs, physical examination, clinical laboratory tests, ECGs, and adverse event reporting. Blood samples were collected pre-dose on Day 1 and serially for 48 hours post-dose to assess the single-dose pharmacokinetics.

[6] = in vivo; details: both, rat, in vivo
Description: (§1) Following this study, 3- and 6-month repeat dose toxicology studies were completed at doses of 30, 100, and 300 mg/kg.

[7] = system: rats; assay: in vivo
Description: as §1

[8] = clinical; details: human; for AUC(0-t): AUC(0-t) (mean ± SD); for Vd/F: Vz/F (mean ± SD); for CL renal: plasma and urine
Description: Safety observations included vital signs, physical examination, clinical laboratory tests, ECGs, and adverse event reporting. Blood and urine samples were collected pre-dose and for 72 hours post-dose to assess the pharmacokinetics.

[9] = plasma, po, 50 mg, single 50 mg oral dose, fasted
[10] = plasma, po, 150 mg, single 150 mg oral dose, fasted
[11] = plasma, po, 150 mg, single 150 mg oral dose, fed

Q: Which NOAEL at 14 days [1] does the source give for `CCCN[C@@H]1CCc2nc(N)sc2C1` [(R)-pramipexole, (6R)-4,5,6,7-tetrahydro-N6-propyl-2,6-benzothiazole-diamine] here?
A: 75 mg/kg

Q: What about the “deaths and clinical observations” value [2] of the same molecule?
A: no deaths attributed to test article or significant clinical observations

Q: What about the “mortality between the 13-week and 26-week sacrifices” value [3] of the same molecule?
A: no mortalities at any dose level

Q: What about the “human equivalence dose of the MTD” value ([4]; based on dog data, 70 kg human subject) of the same molecule?
A: about 3,000 mg

Q: What about the “observable effects in dogs” value ([4]; dog, in vivo) of the same molecule?
A: no observable effects

Q: What about the “functional separation between the (S)- and (R)-enantiomers” value ([4]; male, beagle, dog, in vivo, 4 days) of the same molecule?
A: 10,000-20,000 fold

Q: And the Cmax ([5]; oral, 50 mg)?
A: 191 ± 20.9 ng/mL

Q: And the Tmax ([5]; oral, 50 mg)?
A: 1.75 h

Q: And the Vd/F ([5]; oral, 50 mg)?
A: 346 ± 30.1 L

Q: What about the AUC(0-t) ([5]; oral, 50 mg, AUC(0-12) (mean ± SD), Day 7, 50 mg Q12H on Days 3 through 6 and a single dose on Day 7, fasted) of the same molecule?
A: 1450 ng·h/mL

Q: And the AUC(0-t) ([5]; oral, 50 mg, mean exposure AUC(0-12) at Day 7, 50 mg Q12H)?
A: 1450 ng·h/mL

Q: And the Cmax ([5]; oral, 100 mg)?
A: 306 ± 55 ng/mL

Q: And the Tmax ([5]; oral, 100 mg)?
A: 2 h

Q: And the AUC(0-t) ([5]; oral, 100 mg, AUC(0-12) (mean ± SD), Day 7, 100 mg Q12H on Days 3 through 6 and a single dose on Day 7, fasted)?
A: 2460 ng·h/mL

Q: What about the AUC(0-t) ([5]; oral, 100 mg, mean exposure AUC(0-12) at Day 7, 100 mg Q12H) of the same molecule?
A: 2460 ng·h/mL

Q: What about the AUC(0-inf) ([5]; po, 50 mg) of the same molecule?
A: 1500 ng·h/mL

Q: And the Tmax ([5]; po, 50 mg)?
A: 1.83 h

Q: What about the Vd/F ([5]; po, 50 mg) of the same molecule?
A: 306 ± 45.8 L

Q: And the AUC(0-t) ([5]; po, 50 mg, AUC(0−12) (mean ± SD), Day 1, 50 mg oral dose, fasted)?
A: 1040 ng·h/mL

Q: What about the AUC(0-t) ([5]; po, 50 mg, AUC(0−t) (mean ± SD), Day 1, 50 mg oral dose, fasted) of the same molecule?
A: 1460 ng·h/mL

Q: And the AUC(0-inf) ([5]; po, 100 mg)?
A: 2570 ng·h/mL

Q: What about the Cmax ([5]; po, 100 mg) of the same molecule?
A: 248 ± 30.4 ng/mL

Q: And the Tmax ([5]; po, 100 mg)?
A: 1.92 h

Q: What about the Vd/F ([5]; po, 100 mg) of the same molecule?
A: 373 ± 51 L

Q: What about the AUC(0-t) ([5]; po, 100 mg, AUC(0−12) (mean ± SD), Day 1, 100 mg oral dose, fasted) of the same molecule?
A: 1780 ng·h/mL

Q: And the AUC(0-t) ([5]; po, 100 mg, AUC(0−t) (mean ± SD), Day 1, 100 mg oral dose, fasted)?
A: 2540 ng·h/mL

Q: And the NOAEL at 3 months [6]?
A: 100 mg/kg

Q: What about the NOAEL at 14 days [6] of the same molecule?
A: 150 mg/kg

Q: And the “target organ toxicity by histopathology examination” value ([7]; rat, in vivo, 300 mg/kg)?
A: some target organ toxicity

Q: And the “test article related deaths” value ([7]; rats, 3 months, 30, 100, 300 mg/kg)?
A: no test article related deaths

Q: What about the mortality ([7]; rats, high dose 500 mg/kg, 14 days) of the same molecule?
A: caused mortality

Q: What about the AUC(0-t) ([8]; blood, po, 50 mg, single 50 mg oral dose, fasted) of the same molecule?
A: 989 ng·h/mL

Q: What about the AUC(0-inf) ([8]; blood, po, 50 mg, AUC(inf) (mean ± SD), single 50 mg oral dose, fasted) of the same molecule?
A: 1240 ng·h/mL

Q: What about the AUC(0-t) ([8]; blood, po, 150 mg, single 150 mg oral dose, fasted) of the same molecule?
A: 3390 ng·h/mL

Q: And the AUC(0-inf) ([8]; blood, po, 150 mg, AUC(inf) (mean ± SD), single 150 mg oral dose, fasted)?
A: 3820 ng·h/mL

Q: What about the AUC(0-t) ([8]; blood, po, 300 mg, single 300 mg oral dose, fasted) of the same molecule?
A: 8340 ng·h/mL

Q: And the Cmax ([8]; in vivo, oral, 150 mg)?
A: 315 ± 62 ng/mL

Q: What about the Tmax ([8]; in vivo, oral, 150 mg) of the same molecule?
A: 2.58 h

Q: What about the AUC(0-inf) ([8]; in vivo, oral, 150 mg, AUC (inf) (mean ± SD), CL001, 150 mg SD, second 150 mg line, Food printed Fasted) of the same molecule?
A: 3400 ng·h/mL

Q: What about the AUC(0-t) ([8]; in vivo, oral, 150 mg, CL001, 150 mg SD, second 150 mg line, Food printed Fasted) of the same molecule?
A: 3100 ng·h/mL

Q: What about the Vd/F ([8]; in vivo, oral, 150 mg, 150 mg SD, second 150 mg line, Food printed Fasted) of the same molecule?
A: 406 ± 62.8 L

Q: And the AUC(0-inf) ([8]; in vivo, po, 300 mg, AUC(inf) (mean ± SD), single 300 mg oral dose, fasted)?
A: 8620 ng·h/mL

Q: And the CL renal ([8]; po, 50 mg)?
A: 628 ± 149 mL/min

Q: And the CL renal ([8]; po, 150 mg)?
A: 310 ± 74.3 mL/min

Q: And the CL renal ([8]; po, 300 mg)?
A: 441 ± 159 mL/min

Q: What about the AUC(0-t) [8, 9] of the same molecule?
A: 989 ± 295 ng·h/mL

Q: And the AUC(0-inf) ([8]; plasma, po, 50 mg, AUC(inf) (mean ± SD), single 50 mg oral dose, fasted)?
A: 1250 ng·h/mL

Q: And the Vd/F [8, 9]?
A: 395 ± 61.9 L

Q: What about the AUC(0-inf) ([8]; plasma, po, 50 mg, mean exposure (AUC0-∞), single oral 50 mg, fasted) of the same molecule?
A: 1250 ng·h/mL

Q: What about the Cmax ([8]; plasma, po, 150 mg) of the same molecule?
A: 360 ng/mL

Q: And the AUC(0-t) [8, 10]?
A: 3390 ng·h/mL

Q: And the AUC(0-t) [8, 11]?
A: 3100 ng·h/mL

Q: What about the AUC(0-inf) ([8]; plasma, po, 150 mg, AUC(inf) (mean ± SD), single 150 mg oral dose, fasted) of the same molecule?
A: 3820 ng·h/mL

Q: And the AUC(0-inf) ([8]; plasma, po, 150 mg, AUC(inf) (mean ± SD), single 150 mg oral dose, fed)?
A: 3400 ng·h/mL

Q: What about the Vd/F [8, 10] of the same molecule?
A: 411 ± 81 L

Q: And the Vd/F [8, 11]?
A: 406 ± 62.8 L

Q: And the AUC(0-inf) ([8]; plasma, po, 150 mg, mean exposure (AUC0-∞), single oral 150 mg, fasted)?
A: 3820 ng·h/mL

Q: And the Cmax ([8]; plasma, po, 300 mg)?
A: 781 ng/mL

Q: What about the Tmax ([8]; plasma, po, 300 mg) of the same molecule?
A: 1.96 h
